PubChem BioAssay AID256 (DTP/NCI, 2004)
Values joined by “and” are separate entries in the source; they are usually repeats but may differ in a detail not shown here. Equal values may be shown once. Inconclusive results and toxic doses are left out. The calls were made as follows: active = survival T/C of 150% or more; inactive = T/C below 125% in these data.

System: CD2F1 mice, L1210 leukemia ip, survival T/C
Assay: NCI In Vivo Anticancer Drug Screen. Data for tumor model L1210 Leukemia (intraperitoneal) in CD2F1 (CDF1) mice
Conditions: higher = longer survival
Outline: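 Activity against a transplanted murine tumor was judged by comparing the compound group with a vehicle group. The outcome in the treated animals was divided by that in the controls.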

[1] = endpoint: mean survival time, dose: 50.0 mg/kg/injection, schedule: Q04DX003 (ip), vehicle: saline with Tween-80
[2] = endpoint: mean survival time, dose: 50.0 mg/kg/injection, schedule: Q04DX003 (ip), vehicle: saline
[3] = endpoint: mean survival time, dose: 100.0 mg/kg/injection, schedule: Q04DX003 (ip), vehicle: saline with Tween-80
[4] = endpoint: mean survival time, dose: 100.0 mg/kg/injection, schedule: Q04DX003 (ip), vehicle: saline
[5] = endpoint: mean survival time, dose: 200.0 mg/kg/injection, schedule: Q04DX003 (ip), vehicle: saline with Tween-80
[6] = endpoint: mean survival time, dose: 200.0 mg/kg/injection, schedule: Q04DX003 (ip), vehicle: saline
[7] = endpoint: mean survival time, dose: 400.0 mg/kg/injection, schedule: Q04DX003 (ip), vehicle: saline with Tween-80
[8] = endpoint: mean survival time, dose: 400.0 mg/kg/injection, schedule: Q04DX003 (ip), vehicle: saline
[9] = endpoint: mean survival time, dose: 100.0 mg/kg/injection, schedule: Q01DX009 (ip), vehicle: saline with Tween-80
[10] = endpoint: mean survival time, dose: 200.0 mg/kg/injection, schedule: Q01DX009 (ip), vehicle: saline with Tween-80
[11] = endpoint: mean survival time, dose: 400.0 mg/kg/injection, schedule: Q01DX009 (ip), vehicle: saline with Tween-80
[12] = endpoint: mean survival time, dose: 100.0 mg/kg/injection, schedule: Q01DX001 (ip), vehicle: saline
[13] = endpoint: mean survival time, dose: 6.25 mg/kg/injection, schedule: Q01DX009 (ip), vehicle: saline with Tween-80
[14] = endpoint: mean survival time, dose: 12.5 mg/kg/injection, schedule: Q01DX009 (ip), vehicle: saline with Tween-80
[15] = endpoint: mean survival time, dose: 25.0 mg/kg/injection, schedule: Q01DX009 (ip), vehicle: saline with Tween-80
[16] = endpoint: mean survival time, dose: 50.0 mg/kg/injection, schedule: Q01DX001 (ip), vehicle: saline
[17] = endpoint: mean survival time, dose: 50.0 mg/kg/injection, schedule: Q01DX009 (ip), vehicle: saline with Tween-80
[18] = endpoint: mean survival time, dose: 25.0 mg/kg/injection, schedule: Q01DX009 (ip), vehicle: saline
[19] = endpoint: mean survival time, dose: 50.0 mg/kg/injection, schedule: Q01DX009 (ip), vehicle: saline
[20] = endpoint: mean survival time, dose: 100.0 mg/kg/injection, schedule: Q01DX009 (ip), vehicle: saline
[21] = endpoint: mean survival time, dose: 200.0 mg/kg/injection, schedule: Q01DX009 (ip), vehicle: saline

Measured: T/C

O=Cc1cc(Cl)cc(Cl)c1O.O=Cc1cc(Cl)cc(Cl)c1O.[Co]
inactive: [1] 90 % of control | [2] 100 % of control | [3] 89 % of control | [4] 96 % of control | [5] 94 % of control | [6] 100 % of control | [7] 103 % of control | [8] 96 % of control

Cc1ccc(C(C)C)c(OCCCBr)c1
inactive: endpoint: mean survival time, dose: 25.0 mg/kg/injection, schedule: Q04DX003 (ip), vehicle: saline with Tween-80 101 % of control | [1] 95 % of control | [3] 94 % of control and 95 % of control

O=c1cnn(C2OC(CO)C(O)C2O)c(=S)[nH]1 (stereo not given)
inactive: [9] 123 % of control | endpoint: mean survival time, dose: 100.0 mg/kg/injection, schedule: Q04DX003 (ip), vehicle: saline sonified 102 % of control | [10] 107 % of control | endpoint: mean survival time, dose: 200.0 mg/kg/injection, schedule: Q04DX003 (ip), vehicle: saline sonified 104 % of control | [11] 112 % of control | endpoint: mean survival time, dose: 400.0 mg/kg/injection, schedule: Q04DX003 (ip), vehicle: saline sonified 96 % of control

C=CCc1ccc(OC(=O)Nc2ccc(S(=O)(=O)N(CCC)CCC)cc2)c(OC)c1
inactive: [12] 94 % of control | endpoint: mean survival time, dose: 200.0 mg/kg/injection, schedule: Q01DX001 (ip), vehicle: saline 94 % of control | endpoint: mean survival time, dose: 400.0 mg/kg/injection, schedule: Q01DX001 (ip), vehicle: saline 94 % of control

C1OC1C1CO1 (stereo not given)
inactive: endpoint: mean survival time, dose: 1.25 mg/kg/injection, schedule: Q01DX009 (ip), vehicle: saline 97 % of control and 98 % of control | endpoint: mean survival time, dose: 2.5 mg/kg/injection, schedule: Q01DX009 (ip), vehicle: saline 95 % of control and 100 % of control | endpoint: mean survival time, dose: 5.0 mg/kg/injection, schedule: Q01DX009 (ip), vehicle: saline 96 % of control and 103 % of control | endpoint: mean survival time, dose: 10.0 mg/kg/injection, schedule: Q01DX009 (ip), vehicle: saline 98 % of control and 105 % of control | endpoint: mean survival time, dose: 20.0 mg/kg/injection, schedule: Q01DX009 (ip), vehicle: saline 103 % of control and 112 % of control | endpoint: mean survival time, dose: 40.0 mg/kg/injection, schedule: Q01DX009 (ip), vehicle: saline 108 % of control

c1cnc(NCCSSCCNc2ncccn2)nc1
inactive: [9] 91 % of control | [3] 97 % of control | [10] 89 % of control | [5] 97 % of control | [11] 91 % of control | [7] 96 % of control

CN1CCCN(C)C1c1ccc(Cl)cc1
inactive: [13] 98 % of control | [14] 100 % of control | [15] 94 % of control

CC#CCO
inactive: [9] 104 % of control | [10] 98 % of control

C/C(=N\N(C)C)C(C)(C)C
inactive: endpoint: mean survival time, dose: 75.0 mg/kg/injection, schedule: Q01DX001 (ip), vehicle: saline 93 % of control | endpoint: mean survival time, dose: 150.0 mg/kg/injection, schedule: Q01DX001 (ip), vehicle: saline 100 % of control | endpoint: mean survival time, dose: 300.0 mg/kg/injection, schedule: Q01DX001 (ip), vehicle: saline 108 % of control

CCOC(=O)Nc1cc(NCCc2ccccc2)c(N)c(N)n1
inactive: [16] 101 % of control | [12] 92 % of control

C[n+]1c(/C=N/NC(N)=S)ccc2ccccc21
inactive: [13] 102 % of control | [14] 106 % of control | [15] 108 % of control | [17] 100 % of control | [9] 91 % of control | [10] 94 % of control | endpoint: median survival time, dose: 6.25 mg/kg/injection, schedule: Q01DX009 (ip), vehicle: saline with Tween-80 100 % of control | endpoint: median survival time, dose: 12.5 mg/kg/injection, schedule: Q01DX009 (ip), vehicle: saline with Tween-80 100 % of control | endpoint: median survival time, dose: 25.0 mg/kg/injection, schedule: Q01DX009 (ip), vehicle: saline with Tween-80 96 % of control | endpoint: median survival time, dose: 50.0 mg/kg/injection, schedule: Q01DX009 (ip), vehicle: saline with Tween-80 96 % of control | endpoint: median survival time, dose: 100.0 mg/kg/injection, schedule: Q01DX009 (ip), vehicle: saline with Tween-80 101 % of control

O=c1n(CCCl)c(=O)n(CCCl)c(=O)n1CCCl
inactive: [17] 101 % of control | [9] 100 % of control | [10] 101 % of control

O=Nc1cc(S(=O)(=O)O)c2ccccc2c1O
inactive: [9] 90 % of control | [3] 97 % of control | [10] 88 % of control and 109 % of control | [11] 95 % of control | [7] 97 % of control

Cn1cnc([N+](=O)[O-])c1SCC(=O)O
inactive: [14] 95 % of control | endpoint: mean survival time, dose: 12.5 mg/kg/injection, schedule: Q01DX009 (ip), vehicle: saline 109 % of control | [15] 98 % of control | [18] 112 % of control | [17] 95 % of control | [19] 109 % of control | [9] 98 % of control | [20] 101 % of control | [10] 104 % of control | [21] 104 % of control | [11] 98 % of control | endpoint: mean survival time, dose: 400.0 mg/kg/injection, schedule: Q01DX009 (ip), vehicle: saline 109 % of control

CNC(=O)CCl
inactive: [18] 103 % of control | [19] 105 % of control | [20] 104 % of control

O=c1[nH]c(=O)n(C2SC(CO)C(O)C2O)cc1F (stereo not given)
inactive: endpoint: mean survival time, dose: 178.0 mg/kg/injection, schedule: Q01DX009 (ip), vehicle: saline with Tween-80 113 % of control | endpoint: mean survival time, dose: 267.0 mg/kg/injection, schedule: Q01DX009 (ip), vehicle: saline with Tween-80 113 % of control | [11] 119 % of control

CC(=NCC(=O)O)c1ccccc1
inactive: endpoint: mean survival time, dose: 25.0 mg/kg/injection, schedule: Q04DX003 (ip), vehicle: saline 93 % of control | [2] 100 % of control | [4] 100 % of control

NCc1cccnc1
inactive: endpoint: mean survival time, dose: 100.0 mg/kg/injection, schedule: Q04DX002 (ip), vehicle: saline 96 % of control | endpoint: mean survival time, dose: 200.0 mg/kg/injection, schedule: Q04DX002 (ip), vehicle: saline 107 % of control | endpoint: mean survival time, dose: 400.0 mg/kg/injection, schedule: Q04DX002 (ip), vehicle: saline 111 % of control

CC(=O)NC1Cn2c3c(c(COC(N)=O)c2C1O)C(=O)C(Nc1ccccc1)=C(C)C3=O (stereo not given)
inactive: endpoint: mean survival time, dose: 2.08 mg/kg/injection, schedule: Q01DX001 (ip), vehicle: carboxymethylcellulose (CMC) 86 % of control | endpoint: mean survival time, dose: 3.1 mg/kg/injection, schedule: Q01DX001 (ip), vehicle: carboxymethylcellulose (CMC) 98 % of control | endpoint: mean survival time, dose: 4.7 mg/kg/injection, schedule: Q01DX001 (ip), vehicle: carboxymethylcellulose (CMC) 93 % of control

CC1CCC(C)C([N+](C)(C)C)C1 (stereo not given)
inactive: endpoint: mean survival time, dose: 12.5 mg/kg/injection, schedule: Q01DX001 (ip), vehicle: saline 102 % of control | endpoint: mean survival time, dose: 25.0 mg/kg/injection, schedule: Q01DX001 (ip), vehicle: saline 110 % of control | [16] 100 % of control

Nc1ncnc2nc(-c3ccc(C[P+](c4ccccc4)(c4ccccc4)c4ccccc4)cc3)[nH]c12
inactive: [3] 101 % of control | [5] 95 % of control | [7] 101 % of control

COc1ccc(C2C3C=CC(C3)C2C(=O)O)cc1 (stereo not given)
inactive: [9] 96 % of control | [3] 106 % of control | [10] 96 % of control | [5] 103 % of control | [11] 103 % of control | [7] 95 % of control

C[C@H](N)C(=O)N[C@@H]1[C@H]2C(=C(O)C[C@@H](O)[C@@H]2O)C(=O)O[C@@H]1C
inactive: endpoint: mean survival time, dose: 100.0 mg/kg/injection, schedule: Q01DX007 (ip), vehicle: saline 113 % of control | [20] 118 % of control | endpoint: mean survival time, dose: 100.0 mg/kg/injection, schedule: Q03DX003 (ip), vehicle: saline 107 % of control | [4] 106 % of control | endpoint: mean survival time, dose: 200.0 mg/kg/injection, schedule: Q01DX007 (ip), vehicle: saline 124 % of control | [21] 120 % of control | endpoint: mean survival time, dose: 200.0 mg/kg/injection, schedule: Q03DX003 (ip), vehicle: saline 109 % of control | [6] 106 % of control | endpoint: mean survival time, dose: 400.0 mg/kg/injection, schedule: Q03DX003 (ip), vehicle: saline 115 % of control | [8] 112 % of control | endpoint: median survival time, dose: 75.0 mg/kg/injection, schedule: Q01DX009 (ip), vehicle: saline 103 % of control | endpoint: median survival time, dose: 150.0 mg/kg/injection, schedule: Q01DX009 (ip), vehicle: saline 109 % of control | endpoint: median survival time, dose: 300.0 mg/kg/injection, schedule: Q01DX009 (ip), vehicle: saline 119 % of control | endpoint: median survival time, dose: 2400.0 mg/kg/injection, schedule: Q01DX009 (ip), vehicle: saline 86 % of control
active: endpoint: median survival time, dose: 1200.0 mg/kg/injection, schedule: Q01DX009 (ip), vehicle: saline 150 % of control and 166 % of control
